We go through twelve compounds from patent US20250127898A1, “PHOTODYNAMIC THERAPY AND DIAGNOSIS” (RMW CHO Group Limited, priority 2021, published 2025).

Where a name gives a salt, the structure may show the parent alone. Read-outs that look alike come from different tables or passages of the source.

Series [1] concerns Human ovarian cancer cell line SKOV3. Nature of the series: Inherent cytotoxicity (dark toxicity) in SKOV3 cells (AlamarBlue viability). The class given is cell-based. The procedure:
Photosensitizers (e.g. chlorin analogue, chlorin e4 disodium (provided by Advanced Molecular Technologies, Scoresby) or Talaporfin sodium (purchased from Focus Bioscience cat #HY-16477-5MG)) were resuspended in 100% dimethylsulfoxide (DMSO) at a concentration of 5.5 mM. Samples were stored at 4° C. protected from light.
All data are shown as mean±SD (where appropriate).
Untreated cells were used as a control. […] All measurements were made in quadruplicate.
Background: Alamar Blue is a resazurin reagent that responds to reducing activity.

The test system is the same in series [2]. Nature of the series: Phototoxicity in SKOV3 cells after 660 nm laser or LED activation (AlamarBlue viability). In kind it is cell-based. The procedure:
Samples were stored at 4° C. protected from light. […] All data are shown as mean±SD (where appropriate). […] Laser and LED exposure induce an equivalent response in relation to phototoxicity. Following activation, cells were cultured for a further 24 hours. Media was then replaced with fresh media containing AlamarBlue, and % viable cells remaining assessed as above. Controls included cells treated with reduced chlorin analogues but not activated by laser light; cells without reduced chlorin analogue treatment but with laser light; and untreated controls. All measurements were made in quadruplicate.

For series [3], the system named is TAA- or CCl4-induced acute liver injuries. The conditions noted are these: mice; background statement; cited from earlier work.
The test system of series [4] is indomethacin-induced gastric lesions. The following applies: rats; background statement; cited from earlier work.
For a further series, the system named is C57BL/6 mice. Nature of the series: Acute toxicity after intraperitoneal injection into mice. In kind it is in vivo. The following applies: 5 mg/kg intraperitoneal, observed for 30 mins, prepared with 1% PVP in PBS+20 mM HEPES. The protocol: To assess acute toxicity, reduced phyllochlorin or chlorin e4 disodium (each prepared with 1% PVP in PBS+20 mM HEPES) were administered at a dose of 5 mg/kg to C57BL/6 mice by intraperitoneal injection.

Series [5] in a line: Estimated pKa of the carboxylic acid. The following applies: estimate, no measurement described. In kind it is physicochemical. The text has this:
As PBS buffer (pH 7.4) is used in the experiments and the carboxylic acid in reduced phyllochlorin (and the same carboxy group in other related chlorins) is estimated to have a pKa of less than 5, reduced phyllochlorin in the PBS buffer will exist predominantly as the sodium and potassium salts with very little to no free acid.

Setting [6] is: Homo sapiens, SK-OV-3, light or radiation study, SKOV3 cells, 24 hours uptake, 660 nm LED panel, 50 mW/cm^2 for 5 mins (15 J/cm^2), values marked *, read-out: Phototoxicity μM (IC90), measured by LED.
Where [7] appears, read: SKOV3 cells, 24 hours incubation, no light activation.
The mark [8] stands for this setting: SKOV3 cells, 24 hours uptake, 660 nm laser, 50 mW/cm^2 for 5 mins (15 J/cm^2), viability 24 hours after activation, read-out: Phototoxicity μM (IC90).

One may read the IC90 as the concentration needed for an effect of 90%.

As for `CCC1=C(C)c2cc3[nH]c(cc4nc(c(C)c5cc(C)c(cc1n2)[nH]5)[C@@H](CCC[P+](c1ccccc1)(c1ccccc1)c1ccccc1)[C@@H]4C)c(C)c3CC` [Compound 27, Reduced Phyllochlorin 3-triphenylphosphonium Propyl Iodide], in series [1] (human, 24 h), the “Dark toxicity μM (IC10)” value is 1.326 µM. The IC90 in series [2] (Homo sapiens, SK-OV-3, light or radiation study, SKOV3 cancer cells, laser or LED, read-out: phototoxicity IC90) was ≤ 0.01 µM; in series [2] (setting [6]) it was 0.0055 µM.
In the case of `CCC1=C(C)c2cc3[nH]c(cc4nc(c(C)c5cc(C)c(cc1n2)[nH]5)[C@@H](CCC(=O)N[C@@H](CCCCN)C(=O)N(C)C)[C@@H]4C)c(C)c3CC` [Compound 31, Reduced Phyllochlorin N-Lysyl Dimethylamide Propylamide Hydrochloride], the “Dark toxicity μM (IC10)” value in series [1] (human, 24 h) was 8.850 µM. The IC90 in series [2] (setting [6]) amounted to 0.011 µM.
Regarding `CCC1=C(C)c2cc3[nH]c(cc4nc(c(C)c5[nH]c(cc1n2)c(C)c5C(=O)O)[C@@H](CCC(=O)O)[C@@H]4C)c(C)c3CC` [Compound 36, Reduced Chlorin e4], the “Dark toxicity μM (IC10)” value in series [1] (human, 24 h) came to 12.200 µM. Also, the IC90 in series [2] (Homo sapiens, SK-OV-3, light or radiation study, SKOV3 cells, 24 hours uptake, 660 nm laser, 50 mW/cm^2 for 5 mins (15 J/cm^2), viability 24 hours after activation, read-out: Phototoxicity μM (IC90)) worked out at 4.36 µM.
Take `CCC1=C(C)c2cc3[nH]c(cc4nc(c5c6[nH]c(cc1n2)c(C)c6C(=O)OC5)[C@@H](CCC(=O)O)[C@@H]4C)c(C)c3CC` [Compound 39, Reduced Chlorin K]: the “Dark toxicity μM (IC10)” value in series [1] (human, 24 h) was found to be 6.613 µM. Besides, the 90% effect concentration (IC90) in series [2] (setting [6]) stood at 0.141 µM.
On to `CCC1=C(C)c2cc3[nH]c(cc4nc(c5c6[nH]c(cc1n2)c(C)c6C(=O)OC5)[C@@H](CCC(=O)N(C)CCCS[C@@H]1O[C@H](CO)[C@@H](O)[C@H](O)[C@H]1O)[C@@H]4C)c(C)c3CC` [Compound 40, Reduced Chlorin K β-D-1-thioglucose-N-methylpropylamide], for which the “Dark toxicity μM (IC10)” value in series [1] (human, 24 h) was 3.222 µM. For the same compound, the IC90 in series [2] (setting [6]) turned out to be 0.229 µM.
Take `C=Cc1c(C)c2cc3nc(c(C)c4[nH]c(cc5nc(cc1[nH]2)C(C)=C5CC)c(C)c4C(=O)O)[C@@H](CCC(=O)O)[C@@H]3C` [chlorin e4, Chlorin e4]: the “effect against TAA- or CCl4-induced acute liver injuries” value in series [3] is “protective effect”. In addition, in series [4], the “effect against indomethacin-induced gastric lesions” value is recorded as “protective effect”.
“Phyllochlorin free acid [reference compound]”: the “Dark toxicity μM (IC10)” value in series [1] (setting [7]) was 13.50 µM. In series [2] (setting [8]), the IC90 stood at 0.43 µM.
For “Phyllochlorin sodium salt [reference compound]” the same measures were 21.96 µM and 0.35 µM.
As for “Reduced Phyllochlorin Methyl Ester [Compound 6]”, the “Dark toxicity μM (IC10)” value in series [1] was 11.650 µM. The IC90 in series [2] (setting [8]) turned out to be 0.371 µM.
As to “Reduced Phyllochlorin N-(2-(2-(2-picolinylethoxy)ethoxy)ethyl)-N-methyl-3-amide chloride [Compound 28]”, in series [1] (setting [7]), the “Dark toxicity μM (IC10)” value is 1.510 µM. Moreover, the 90% effect concentration (IC90) in series [2] (SKOV3 cells, 24 hours uptake, 660 nm LED panel, 50 mW/cm^2 for 5 mins (15 J/cm^2), values marked *, read-out: Phototoxicity μM (IC90), measured by LED) is 0.0326 µM.
Take “Reduced Phyllochlorin N-(2-(2-hydroxyethoxy)ethyl)-N-methylpropylamide [Compound 7]”: in series [1], the “Dark toxicity μM (IC10)” value was found to be 26.100 µM. Besides, the concentration for an effect of 90% (IC90) in series [2] (setting [8]) came out at 0.036 µM.
On to Reduced Phyllochlorin [Compound 1], for which the “clinical signs of acute toxicity (squinting, piloerection, loss of motility, general behaviour)” value with C57BL/6 mice is on record as “safe for injection”. The “pKa of the carboxylic acid (estimated)” value in series [5] is listed as “less than 5”. In addition, in series [1], the “Dark toxicity compared to non-meso analogue” value is “largely unaffected” and the “Dark toxicity μM (IC10)” value is 10.450 µM. Also, the IC90 in series [2] (setting [8]) was 0.176 µM. In series [2] (SKOV3 cells, vs phyllochlorin free acid / phyllochlorin sodium salt), the “increase in phototoxicity of meso-compound compared to non-meso analogue” value came to 2.4 fold.
